{"source": "patent US11896593B2", "about": "“Sulfamate derivative compounds for use in treating or alleviating a psychiatric disorder” (Bio-Pharm Solutions Co., Ltd., priority 2020, dated 2024)", "data": [{"test_system": "ICR male mice", "assay": "Forced swim test (mouse, mFST)", "type": "in vivo", "conditions": "po; mouse forced swim test, 30 mg/kg, 1 hr; read-out: mFST protection % at administration dose", "procedure": "(§1) In order to determine the anti-depressant effect in rodents, the forced swim test was performed with rats and mice. The forced swim test causes an immobile state by forcing an animal to swim in a confined space. It reflects a state of despair giving up evading such a circumstance. ICR male mice (25 g to 30 g) and Wistar male rats (240 g to 260 g) were purchased from Samtako Bio Korea Co. (Korea) and allowed to acclimatize for 1 week before being tested in a controlled animal facility (temperature 22±2° C., humidity 55±5%). The test compound was dissolved in 20% Tween80 and administered orally 60 minutes before testing. The control group was provided with a corresponding vehicle. […] 15 minutes of forced swimming was performed a day before the experiment. On the day of the experiment, the animal was placed in the cylinder 60 minutes after the administration of the compound and was videotaped for 6 minutes. In the recorded videos, time during which the animal placed its head on the water and remained still without movement was measured based on the remaining 4 minutes excluding the first 2 minutes. It was evaluated that the lower the value of the immobile posture time, the greater the anti-depressant action (Reference; Porsolt R D, Le Pichon M. Jalfre M. 1997. Depression: a new animal model sensitive to antidepressant treatments. Nature. April 21; 266(5604):730-2.).\n(§2) The result was shown as the standard error of measurement (SEM) of mean value t mean value. Behavioral data were analyzed by one-way ANOVA. For statistical significance, a value of <0.05 was taken (***p<0.001, **p=0.001˜0.01, *p=0.01˜0.05). Data management and statistics were performed using the Prism software of Windows version 4 (GraphPad Softward Co., San Diego, CA, USA).\n(§3) Based on the results of Table 7, the ED50 value of the compound of Example 2 was calculated and shown in Table 7, and after 30 mg/kg and 60 mg/kg of the compounds of the other remaining examples were administered based on TD50 values to perform the forced swim tests, respectively, the administration doses with protected efficacy and protection % at the corresponding administration doses were shown in Table 7.", "units": {"inhibition in vivo at 30 mg/kg": "%"}, "values": [{"smiles": "CC1(C)O[C@@H](COS(N)(=O)=O)[C@H](c2ccc(Cl)cc2Cl)O1", "note": "[Example 40, ((4S,5S)-5-(2,4-dichlorophenyl)-2,2-dimethyl-1,3-dioxolan-4-yl)methyl sulfamate]", "inhibition in vivo at 30 mg/kg": 64.2}, {"smiles": "NS(=O)(=O)OC[C@H]1OC2(CCCC2)O[C@@H]1c1c(Cl)cccc1Cl", "note": "[Example 57, ((2R,3R)-3-(2,6-dichlorophenyl)-1,4-dioxaspiro[4,4]nonan-2-yl)methyl sulfamate]", "inhibition in vivo at 30 mg/kg": 61.6}, {"smiles": "Cc1ccccc1[C@@H]1OC(C)(C)O[C@H]1COS(N)(=O)=O", "note": "[Example 92, ((4S,5S)-5-(2-methylphenyl)-2,2-dimethyl-1,3-dioxolan-4-yl)methyl sulfamate]", "inhibition in vivo at 30 mg/kg": 47}, {"smiles": "CC1(C)O[C@@H](COS(N)(=O)=O)[C@H](Cc2ccccc2)O1", "note": "[Example 122, ((4S,5S)-5-benzyl-2,2-dimethyl-1,3-dioxolan-4-yl)methyl sulfamate]", "inhibition in vivo at 30 mg/kg": 46.9}, {"smiles": "CC1(C)O[C@@H](CCOS(N)(=O)=O)[C@H](c2ccccc2)O1", "note": "[Example 130, 2-((4S,5S)-5-phenyl-2,2-dimethyl-1,3-dioxolan-4-yl)ethyl sulfamate]", "inhibition in vivo at 30 mg/kg": 57.5}, {"smiles": "NS(=O)(=O)OCC[C@@H]1OC2(CCCC2)O[C@H]1c1ccccc1", "note": "[Example 134, 2-((2S,3S)-3-phenyl-1,4-dioxaspiro[4,4]nonan-2-yl)ethyl sulfamate]", "inhibition in vivo at 30 mg/kg": 63}, {"smiles": "NS(=O)(=O)OCC[C@@H]1OC2(CCCC2)O[C@H]1c1ccccc1Cl", "note": "[Example 158, 2-((2S,3S)-3-(2-chlorophenyl)-1,4-dioxaspiro[4,4]nonan-2-yl)ethyl sulfamate]", "inhibition in vivo at 30 mg/kg": 51.6}]}, {"test_system": "ICR male mice", "assay": "Forced swim test (mouse, mFST)", "type": "in vivo", "conditions": "po; mouse forced swim test, 60 mg/kg, 1 hr; read-out: mFST protection % at administration dose", "procedure": "as §1, §2, §3", "units": {"inhibition in vivo at 60 mg/kg": "%"}, "values": [{"smiles": "NS(=O)(=O)OC[C@@H]1OC2(CCCC2)O[C@H]1c1ccccc1Cl", "note": "[Example 10, ((2S,3S)-3-(2-chlorophenyl)-1,4-dioxaspiro[4,4]nonan-2-yl)methyl sulfamate]", "inhibition in vivo at 60 mg/kg": 19}, {"smiles": "Nc1ccccc1[C@@H]1OC2(CCCC2)O[C@H]1COS(N)(=O)=O", "note": "[Example 72, ((2S,3S)-3-(2-aminophenyl)-1,4-dioxaspiro[4,4]nonan-2-yl)methyl sulfamate]", "inhibition in vivo at 60 mg/kg": 54.3}, {"smiles": "NS(=O)(=O)OC[C@@H]1OC(=O)O[C@H]1c1ccccc1[N+](=O)[O-]", "note": "[Example 90, ((4S,5S)-5-(2-nitrophenyl)-2-oxo-1,3-dioxolan-4-yl)methyl sulfamate]", "inhibition in vivo at 60 mg/kg": 60.4}, {"smiles": "CC1(C)O[C@@H](COS(N)(=O)=O)[C@H](c2ccccc2)O1", "note": "[Example 106, ((4S,5S)-5-phenyl-2,2-dimethyl-1,3-dioxolan-4-yl)methyl sulfamate]", "inhibition in vivo at 60 mg/kg": 24.5}, {"smiles": "NS(=O)(=O)OC[C@@H]1OC2(CCCC2)O[C@H]1c1ccccc1", "note": "[Example 110, ((2S,3S)-3-phenyl-1,4-dioxaspiro[4,4]nonan-2-yl)methyl sulfamate]", "inhibition in vivo at 60 mg/kg": 39.3}, {"smiles": "CC1(C)O[C@@H](CCOS(N)(=O)=O)[C@H](Cc2ccccc2)O1", "note": "[Example 114, 2-((4S,5S)-5-benzyl-2,2-dimethyl-1,3-dioxolan-4-yl)ethyl sulfamate]", "inhibition in vivo at 60 mg/kg": 36.4}, {"smiles": "NS(=O)(=O)OCC[C@@H]1OC2(CCCC2)O[C@H]1Cc1ccccc1", "note": "[Example 118, 2-((2S,3S)-3-benzyl-1,4-dioxaspiro[4,4]nonan-2-yl)ethyl sulfamate]", "inhibition in vivo at 60 mg/kg": 35.3}, {"smiles": "NS(=O)(=O)OC[C@@H]1OC2(CCCC2)O[C@H]1Cc1ccccc1", "note": "[Example 126, ((2S,3S)-3-benzyl-1,4-dioxaspiro[4,4]nonan-2-yl)methyl sulfamate]", "inhibition in vivo at 60 mg/kg": 43}, {"smiles": "CC1(C)O[C@@H](CCOS(N)(=O)=O)[C@H](Cc2ccccc2Cl)O1", "note": "[Example 138, 2-((4S,5S)-5-(2-chlorobenzyll)-2,2-dimethyl-1,3-dioxolan-4-yl)ethyl sulfamate]", "inhibition in vivo at 60 mg/kg": 60.2}, {"smiles": "NS(=O)(=O)OCC[C@@H]1OC2(CCCC2)O[C@H]1Cc1ccccc1Cl", "note": "[Example 142, 2-((2S,3S)-3-(2-chlorobenzyl)-1,4-dioxaspiro[4,4]nonan-2-yl)ethyl sulfamate]", "inhibition in vivo at 60 mg/kg": 45.9}, {"smiles": "CC1(C)O[C@@H](COS(N)(=O)=O)[C@H](Cc2ccccc2Cl)O1", "note": "[Example 146, ((4S,5S)-5-(2-chlorobenzyl)-2,2-dimethyl-1,3-dioxolan-4-yl)methyl sulfamate]", "inhibition in vivo at 60 mg/kg": 65.1}, {"smiles": "NS(=O)(=O)OC[C@@H]1OC2(CCCC2)O[C@H]1Cc1ccccc1Cl", "note": "[Example 150, ((2S,3S)-3-(2-chlorobenzyl)-1,4-dioxaspiro[4,4]nonan-2-yl)methyl sulfamate]", "inhibition in vivo at 60 mg/kg": 56.9}, {"smiles": "CC1(C)O[C@@H](CCOS(N)(=O)=O)[C@H](c2ccccc2Cl)O1", "note": "[Example 154, 2-((4S,5S)-5-(2-chlorophenyl)-2,2-dimethyl-1,3-dioxolan-4-yl)ethyl sulfamate]", "inhibition in vivo at 60 mg/kg": 38.9}, {"smiles": "CC1(C)O[C@@H](COS(N)(=O)=O)[C@H](c2sc(Cl)nc2Cl)O1", "note": "[Example 164, ((4S,5R)-5-(2,4-dichlorothiazol-5-yl)-2,2-dimethyl-1,3-dioxolan-4-yl)methyl sulfamate]", "inhibition in vivo at 60 mg/kg": 44.9}, {"smiles": "CC1(C)O[C@@H](COS(N)(=O)=O)[C@H](c2cnc(Cl)s2)O1", "note": "[Example 166, ((4R,5S)-5-(2-chlorothiazol-5-yl)-2,2-dimethyl-1,3-dioxolan-4-yl)methyl-sulfamate]", "inhibition in vivo at 60 mg/kg": 53.3}]}]}
